Earlier results as cited in patent US20080033027A1, “Drug combination pharmaceutical compositions and methods for using them” (VICUS THERAPEUTICS SPE 1, LLC, priority 2005, published 2008).
Where a name gives a salt, the structure may show the parent alone. Read-outs that look alike come from different tables or passages of the source.

How the values were obtained:
[1] = for Elimination, Renal (%): share eliminated by the renal route; for Elimination (% unchanged): value in parentheses; for Elimination, Biliary/fecal (%): share eliminated by the biliary/fecal route
[2] = for solubility in ethanol / alcohol: alcohol(s)
[3] = system: cachectic severely burned children; cachectic metastatic cancer patients
[4] = oral EPA, after entering the blood stream
[5] = cachectic metastatic cancer patients
[6] = cachectic severely burned children

SMILES | Biotransformation ([1]; in vivo) | Half-life ([1]; in vivo) [h] | Removable by Hemodialysis ([1]; in vivo) | Oral Absorp. (%) ([1]; in vivo) | Elimination, Renal (%) [1] | Time to Peak Effect Single dose [1] [h] | Elimination (% unchanged) [1] | Elimination (route) ([1]; in vivo) | other results
CC(C)NCC(O)COc1ccc(CCOCC2CC2)cc1 (stereo not shown) [Betaxolol] | Hepatic | 14 to 22 | No | 80-89% | > 80% | 3 to 4 | 15% |  | 
CC(C)NCC(O)c1ccc(NS(C)(=O)=O)cc1 (stereo not shown) [Sotalol] |  | 7 to 18 |  | >80% |  |  | 75% | Renal | 
CCc1cccc2c3c([nH]c12)C(CC)(CC(=O)O)OCC3 (single isomer, unassigned; (+)) [Etodolac, (+) 1,8-diethyl-1,3,4,9-tetrahydropyrano-[3,4-b]indole-1-acetic acid] |  |  |  |  |  |  |  |  | solubility in ethanol / alcohol [2]: soluble; solubility in water [2]: insoluble; GI complications rate (among non-specific Cox inhibitors): lowest; cardiovascular events (compared with specific cox2 inhibitors): without the reported increase
COc1ccccc1OCCNCC(O)COc1cccc2[nH]c3ccccc3c12 (stereo not shown) [Carvedilol] | Hepatic | 7 to 10 | No | 25-35% | <2% Renal |  |  |  | 
CC(C)NCC(O)COc1ccc(COCCOC(C)C)cc1 (stereo not shown) [Bisoprolol] | Hepatic | 9 to 12 | No | 80-90% |  |  | 50% | Renal | Elimination, Biliary/fecal (%) [1]: <2% Fecal; Half-life ([1]; stated in the text): 10 to 12 h
CC(C)(C)NCC(O)COc1cccc2c1CCC(=O)N2 (stereo not shown) [Carteolol] | Hepatic | 6 |  | 85% |  | 1 to 3 | (50-70) % | Renal | 
CC(C)NCC(O)COc1cccc2ccccc12.Cl (stereo not drawn) [Propranolol, 2-Propanol, 1-[(1-methylethyl)amino]-3-(1-naphthalenyloxy)-, hydrochloride, (+)-] |  | 3 to 5 |  |  |  |  |  |  | stability of the solid ([2]; crystalline solid): stable; solubility in ethanol / alcohol [2]: readily soluble; solubility in water [2]: readily soluble; adverse events ([3]; both previous trials): No adverse events were reported; elevated inflammatory cytokines [3, 5]: reduction; elevated resting energy expenditure [3, 5]: reduction; elevated inflammatory cytokines [3, 6]: reduction; elevated resting energy expenditure [3, 6]: reduction; rate of loss of lean body mass [3, 6]: reduction
C=CCOc1ccccc1OCC(O)CNC(C)C (stereo not shown) [Oxprenolol] | Hepatic | 1.3 to 1.5 |  | 90% |  |  | < 5% | Renal | 
CC(C)(C)NCC(O)COc1cccc2c1CC(O)C(O)C2 (stereo not shown) [Nadolol] | None | 20 to 24 | Yes | 30% |  | 4 | 70% | Renal | Half-life ([1]; stated in the text): 10 to 24 h; route of elimination ([1]; stated in the text): kidney excreted
CC(C)(C)NC[C@H](O)COc1ccccc1C1CCCC1 [Penbutolol] | Hepatic | 5 | No | 100% | 90% | 1.5 to 3 | 0% |  | 
CC/C=C\C/C=C\C/C=C\C/C=C\C/C=C\CCCC(=O)O [EPA, eicosapentaenoic acid] |  |  |  |  |  |  |  |  | cleared in the first pass (liver) [4]: ≤ 90%
CC(C)(C)NC[C@H](O)COc1nsnc1N1CCOCC1 [Timolol] | Hepatic | 4 | No | 90% |  | 1 to 2 | 20% |  | Elimination (route) ([1]; in vivo, fecal elimination): Fecal; Elimination (route) ([1]; in vivo, renal elimination): Renal
CC(C)NCC(O)COc1ccc(CC(N)=O)cc1 (stereo not shown) [Atenolol] |  |  |  | 50-60% | 85-100% | 2 to 4 |  |  | 
CCCC(=O)Nc1ccc(OCC(O)CNC(C)C)c(C(C)=O)c1 (stereo not shown) [Acebutolol] |  | 3 to 4 |  | 70% | 30-40% |  |  |  | Elimination, Biliary/fecal (%) [1]: 50-60%
CC(CCc1ccccc1)NCC(O)c1ccc(O)c(C(N)=O)c1 (stereo not shown) [Labetalol] | Hepatic |  | No | 100% | 55-60% |  | < 5% | Biliary/fecal | Half-life (hr) ([1]; IV): ~5.5 IV hr; Half-life (hr) ([1]; oral): 6-8 oral hr; Time to Peak Effect Single dose ([1]; IV): 0.083 h (IV); Time to Peak Effect Single dose ([1]; oral): 2 to 4 h
CC(C)NCC(O)COc1cccc2[nH]ccc12 (stereo not shown) [Pindolol] |  | 3 to 4 |  | 90-100% |  |  | 40% | Renal | 
COCCc1ccc(OCC(O)CNC(C)C)cc1 (stereo not shown) [Metoprolol] |  | 3 to 7 |  |  |  |  |  |  | 
COCCc1ccc(OCC(O)CNC(C)C)cc1 (racemic) [Metoprolol succinate, (±)1-(isopropylamino)-3-[p-(2-methoxyethyl)phenoxy]-2-propanol succinate (2:1) (salt)] |  |  |  |  |  |  |  |  | solubility in ethanol / alcohol [2]: sparingly soluble; solubility in water [2]: freely soluble
COCCc1ccc(OCC(O)CNC(C)C)cc1 (racemic) [Metoprolol tartrate, (±)-1-(isopropylamino)-3-(p-(2-(methoxyethyl)phenoxy)-2-propanol (2:1) dextrotartrate salt] |  |  |  |  |  |  |  |  | solubility in ethanol / alcohol [2]: freely soluble; solubility in water [2]: very soluble
